This assay deals with rat model of endometriosis. Description: behavioral assessment of vaginal nociception (escape response) in rat model of endometriosis. In kind it is in vivo. The settings on record: 30 mg/kg/day p.o.; for Post-Treatment period (PT) median escape response: four weeks of treatment, proestrus. An excerpt: Baseline vaginal nociception was first assessed in rats. Then, endometriosis was induced when rats were four months of age by suturing uterine fragments within the peritoneal cavity to generate ectopic endometrium (lesions). […] In this model, four (2 mm×2 mm) pieces of uterine horn are auto transplanted onto cascading mesenteric arteries within the pelvic cavity of rats that are hormonally and immunologically intact. The present model avoids ovariectomy followed by estradiol supplementation that is common in most mouse models which eliminates the natural estradiol variations within the estrous cycle and the ability to assess drug treatment effects on fertility.
Behavioral assessment of vaginal nociception: Volumes of water (0.01, 0.15, 0.30, 0.40, 0.55, 0.70, 0.80, and 0.90 mL) were delivered via a vaginal balloon to the rat's vaginal canal. When the previously trained rat detects this stimulus as noxious, she will poke her head into a tube to break an infrared (IR) beam. This beam break terminates the stimulus (balloon deflates). During each testing session, eight different distention volumes were delivered randomly three times each ˜60 seconds apart. The maximum latency of 15 seconds is considered to be no response. The experimenter was blinded to the volumes being delivered.
Data analyses of behavioral results: Percent escape responses as a function of distention volume were measured in each session. For each rat, the escape response percentages as a function of distention volume from all sessions for each testing period were determined. The median escape response percentage and interquartile range (IQR) for all rats from each testing period was determined.
Statistical analyses were performed using Mann Whitney U test, and p-values were corrected using the Bonferroni correction method.

Molecules are shown by their SMILES.

Consider `CC(C(=O)O)c1cccc(Oc2ccccc2)c1` (stereo not shown) [fenoprofen], for which the “escape responses between the baseline period and the post-treatment period” value (any volume of water delivered, Mann Whitney U test, Bonferroni-corrected threshold 0.05) is on record as “No statistically significant difference”. The “Post-Treatment period (PT) median escape response” value is, setting by setting: (volume 0.01 mL) 0%; (volume 0.15 mL) 0%; (volume 0.3 mL) 0%; (volume 0.4 mL) 16.65%; (volume 0.55 mL) 33.3%; (volume 0.7 mL) 66.6%. Besides, the “Post-Treatment period (PT) median escape response” value (volume 0.8 mL) is 100% and the “Post-Treatment period (PT) median escape response” value (volume 0.9 mL) amounted to 100%. Further, the “escape responses during the post-treatment period compared to the post-endo surgery period” value (volumes of 0.15, 0.3, 0.4, 0.55, 0.7 and 0.8 mL, Mann Whitney U test, Bonferroni-corrected threshold 0.05) was “significantly decreased”.
